This note sets out measurements from US5081131A, “Omega-((hetero)alkyl)benz(cd)-indol-2-amines” (American Cyanamid Company, priority 1988, dated 1992).

Where a name gives a salt, the structure may show the parent alone.

In assay [1] the target is T1, thromboxane synthetase enzyme (Rattus norvegicus, UniProt P49430).
T1 construct: endogenous in cells; host or cells: washed platelets from arterial blood of male Okamoto-Aoki spontaneously hypertensive rats (animals from Taconic Farms, Germantown, N.Y.)
T1 sequence (P49430 1-533): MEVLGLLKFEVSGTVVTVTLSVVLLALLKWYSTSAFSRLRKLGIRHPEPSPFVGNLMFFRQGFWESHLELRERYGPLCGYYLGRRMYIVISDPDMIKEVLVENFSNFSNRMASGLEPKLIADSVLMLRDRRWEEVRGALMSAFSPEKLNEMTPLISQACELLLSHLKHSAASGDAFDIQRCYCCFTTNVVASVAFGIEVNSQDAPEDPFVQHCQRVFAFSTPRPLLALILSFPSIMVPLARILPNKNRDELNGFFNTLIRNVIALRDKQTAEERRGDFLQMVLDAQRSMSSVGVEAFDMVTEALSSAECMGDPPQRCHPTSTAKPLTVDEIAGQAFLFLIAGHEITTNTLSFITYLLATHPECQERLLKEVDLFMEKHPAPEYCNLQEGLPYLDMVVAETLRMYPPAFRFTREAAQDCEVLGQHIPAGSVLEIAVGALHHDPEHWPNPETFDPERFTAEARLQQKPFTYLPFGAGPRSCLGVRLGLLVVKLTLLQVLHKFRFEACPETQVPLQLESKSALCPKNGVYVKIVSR
As to the kind of experiment: Thromboxane synthetase enzyme inhibition (TXB2 formation in washed platelets, RIA). Format: cell-based, spontaneously hypertensive rat. The conditions noted are these: 1×10^-4 Molar, SHR platelets, 10 min at 37° C.; for inhibition at 100 µM: read-out: % Inhibition (Thromboxane Synthetase Enzyme Inhibition). Here is the method: The blood was diluted with 3 ml cold saline and centrifuged at room temperature for 15 min at 468×g. The platelet rich plasma (PRP) was separated. The platelets were isolated by certrifuging the PRP for 10 minutes at 1060×g and washed in 4 ml cold oxygenated Krebs phosphate buffer, pH 7.4. The chilled platelets recovered from centrifuging at 800×g for 10 minutes were resuspended in oxygenated Krebs phosphate buffer and diluted to contain 4.0-6.0×10^4 platelets/micro-liters. The inhibition of TX formation was studied by determining the concentration of thromboxane B2 (TXB2), the stable hydrolysis product of TXA2. Assay samples prepared on ice, contained 200 micro-liters platelet suspension, 50 micro-liters saline, and 50 micro-liters […] (saline) or drug under study. The test drug (0.003 mole) was dissolved in 5 ml of saline. […] The assay samples were incubated for 10 minutes at 37° C. in a metabolic shaker at about 60 rpm. The reaction was terminated by immersing the tubes in an ice bath and adding 50 micro-liters of 0.5M citric acid. The samples were centrifuged for 10 minutes at 2000 rpm at 4° C., and the supernatants were decanted.

For assay [2], the system named is spontaneously hypertensive rats. Nature of the assay: Hypotensive activity in spontaneously hypertensive rats (MABP). Conditions: SHR, gavage, two doses of 10 mg/kg or less 24 h apart, MABP at 28 h; average baseline 160±1.5 mm Hg. Format: in vivo, rat (Okamoto strain). Here is the method:
The novel compounds of the present invention are active hypotensive agents and were tested for hypotensive activity by the method of P. S. Chan and D. Poorvin, Clinical and Experimental Hypertension, 1 (6), 817-830 (1979). Male, 16 week old, spontaneously hypertensive rats of the Okamoto strain, from Taconic Farms, Germantown, N.Y., having an average mean arterial blood pressure of 160±1.5 mm of mercury, were used in the test. One to 4 rats were used per test compound. A rat was dosed by gavage with a test compound, suspended in 2% pre-boiled starch at a concentration of 50 mg/ml, at a doses of 10 mg/kg of body weight or less, with 0.9% sodium chloride loading at a dose of 25 ml/kg of body weight. A second identical dose of the test compound, without sodium chloride loading was given 24 hours later. At 28 hours after initial dose the mean arterial blood pressure (MABP) was measured. The procedure was repeated in a second and third rat when necessary.

With `C(=C/Cn1ccnc1)/CNC1=Nc2cccc3cccc1c23` [(Z)-N-(4-(1H-imidazol-1-yl)-2-butenyl)benz(cd)indol-2-amine, hydriodide], the “% Inhibition (Thromboxane Synthetase Enzyme Inhibition)” value in assay [1] is recorded as 100%. For the same compound, the “Avg. MABP in mm Hg (No. of Rats)” value in assay [2] came out at 106 mm Hg.
As a reminder, the inhibition is the percentage by which the read-out fell short of the control. With `O=C(O)/C=C/C(=O)O.c1ccc(CCNC2=Nc3cccc4cccc2c34)nc1` [N-(2-(2-Pyridinyl)ethyl)benz(cd)indol-2-amine, fumarate], in assay [1], the inhibition at 100 µM was 94%. Also, the “Avg. MABP in mm Hg (No. of Rats)” value in assay [2] came out at 137 mm Hg.
The like results for `O=C(O)/C=C/C(=O)O.c1ccc(OCCNC2=Nc3cccc4cccc2c34)nc1` [N-(2-(2-Pyridinyloxy)ethyl)benz(cd)indol-2-amine fumarate] were, in that order, 88% and 140 mm Hg.
Consider `c1cc2c3c(cccc3c1)C(NCCc1ccncc1)=N2` [N-(2-(4-Pyridinyl)ethyl)benz(cd)indol-2-amine, sesqui-fumarate], for which the inhibition at 100 µM in assay [1] turned out to be 88%. Also, the “Avg. MABP in mm Hg (No. of Rats)” value in assay [2] turned out to be 115 mm Hg.
For `O=C(O)/C=C/C(=O)O.c1coc(CNC2=Nc3cccc4cccc2c34)c1` [N-(2-Furanylmethyl)benz(cd)indol-2-amine fumarate], in that order: 93% and 142 mm Hg.
On to `CC(CNC1=Nc2cccc3cccc1c23)Cc1cccnc1.O=C(O)/C=C/C(=O)O` (centres unmarked) [N-(2-Methyl-3-(3-pyridinyl)propyl)benz(cd)indol-2-amine, fumarate], for which the inhibition at 100 µM in assay [1] worked out at 99%. Moreover, in assay [2], the “Avg. MABP in mm Hg (No. of Rats)” value is 124 mm Hg.
In the case of `O=C(O)/C=C/C(=O)O.c1csc(CNC2=Nc3cccc4cccc2c34)c1` [N-(2-Thienylmethyl)benz(cd)indol-2-amine, fumarate], the inhibition at 100 µM in assay [1] worked out at 93%. The “Avg. MABP in mm Hg (No. of Rats)” value in assay [2] came out at 141 mm Hg.
For the compound `O=C(O)/C=C/C(=O)O.c1cc2c3c(cccc3c1)C(NCCCn1cnc3ccccc31)=N2` [N-(3-(1H-benzimidazol-1-yl)propyl)benz(cd)indol-2-amine, fumarate], the “% Inhibition (Thromboxane Synthetase Enzyme Inhibition)” value in assay [1] is listed as 90%. For the same compound, the “Avg. MABP in mm Hg (No. of Rats)” value in assay [2] is 123 mm Hg.
For `c1cc2c3c(cccc3c1)C(NCCCn1cnc3ccccc31)=N2` [N-(3-(1H-benzimidazol-1-yl)propyl)benz(cd)indol-2-amine], in that order: 60% and 124 mm Hg.
As for `CC(CNC1=Nc2cccc3cccc1c23)Cn1ccnc1.Cl.Cl` (centres unmarked) [N-(3-(1H-imidazol-1-yl)-2-methylpropyl)benz(cd)indol-2-amine, dihydrochloride], the inhibition at 100 µM in assay [1] came out at 95%. For the same compound, the “Avg. MABP in mm Hg (No. of Rats)” value in assay [2] is 113 mm Hg.
For `CC(CCNC1=Nc2cccc3cccc1c23)n1ccnc1` (stereo not drawn) [N-(3-(1H-imidazol-l-yl)butyl)benz(cd) indol-2-amine, dihydrochloride], in that order: 92% and 104 mm Hg.
With `CC(CCNC1=Nc2cccc3cccc1c23)c1cccnc1` (centres unmarked) [N-(3-(3-Pyridinyl)butyl)benz(cd)indol-2-amine], in assay [1], the inhibition at 100 µM is 96%. In addition, the “Avg. MABP in mm Hg (No. of Rats)” value in assay [2] was found to be 110 mm Hg.
As to `O=C(O)/C=C/C(=O)O.c1cncc(CCCNC2=Nc3cccc4cccc2c34)c1` [N-(3-(3-Pyridinyl)propyl)benz(cd)indol-2-amine, fumarate], the inhibition at 100 µM in assay [1] was 97%. Further, in assay [2], the “Avg. MABP in mm Hg (No. of Rats)” value is given as 93 mm Hg.
The like results for `O=C(O)/C=C/C(=O)O.c1cncc(OCCCNC2=Nc3cccc4cccc2c34)c1` [N-(3-(3-Pyridinyloxy)propyl)benz(cd)indol-2-amine, fumarate] were, in that order, 94% and 116 mm Hg.
For `CC(CCCNC1=Nc2cccc3cccc1c23)n1ccnc1.O=C(O)/C=C/C(=O)O` (centres unmarked) [N-(4-(1H-imidazol-1-yl)pentyl)benz(cd)indol-2-amine, fumarate], in that order: 99% and 97 mm Hg.
On to `c1ccc(CCCCNC2=Nc3cccc4cccc2c34)nc1` [N-(4-(2-Pyridinyl)butyl)benz(cd)indol-2-amine, sesqui-fumarate], for which the inhibition at 100 µM in assay [1] came to 89%. The “Avg. MABP in mm Hg (No. of Rats)” value in assay [2] is recorded as 106 mm Hg.
Take `c1cc2c3c(cccc3c1)C(NCc1ccncc1)=N2` [N-(4-Pyridinylmethyl)benz(cd)indol-2-amine, sesqui-fumarate]: the inhibition at 100 µM in assay [1] was determined as 97%. In addition, the “Avg. MABP in mm Hg (No. of Rats)” value in assay [2] is reported as 90 mm Hg.
`CC(CCNC1=Nc2cccc3cccc1c23)CCn1ccnc1` (centres unmarked) [N-(5-(1H-imidazol-1-yl)-3-methylpentyl)benz(cd)indol-2-amine,dihydrochloride]: in assay [1], the inhibition at 100 µM turned out to be 100%. For the same compound, the “Avg. MABP in mm Hg (No. of Rats)” value in assay [2] was determined as 92 mm Hg.
As for `O=C(O)/C=C/C(=O)O.c1cc2c3c(cccc3c1)C(NCCCCCn1ccnc1)=N2` [N-(5-(1H-imidazol-1-yl)pentyl)benz(cd)indol-2-amine, fumarate], the inhibition at 100 µM in assay [1] came out at 95%. Further, in assay [2], the “Avg. MABP in mm Hg (No. of Rats)” value stood at 111 mm Hg.
The like results for `Cl.Cl.c1cc2c3c(cccc3c1)C(NCCCCCCCCn1ccnc1)=N2` [N-(8-(1H-imidazol-1-yl)octyl)benz(cd)indol-2-amine, dihydrochloride] were, in that order, 100% and 111 mm Hg.
As to `c1cc2c3c(cccc3c1)C(NCCCCCCCCCCCCn1ccnc1)=N2` [N-(12-(1H-imidazol-1-yl)dodecyl)benz(cd)indol-2-amine], in assay [1], the inhibition at 100 µM was found to be 97%. Further, the “Avg. MABP in mm Hg (No. of Rats)” value in assay [2] was 133 mm Hg.
`O=C(O)/C=C/C(=O)O.c1cc2c3c(cccc3c1)C(NCc1ccc(Cn3ccnc3)cc1)=N2` [N-((4-(1H-imidazol-1-ylmethyl)phenyl)methyl)benz(cd)indol-2-amine, fumarate]: in assay [1], the inhibition at 100 µM was 100%. For the same compound, the “Avg. MABP in mm Hg (No. of Rats)” value in assay [2] came out at 121 mm Hg.
As to `O=C(c1ccccc1)N(CCCn1ccnc1)C1=Nc2cccc3cccc1c23` [N-Benz(cd)indol-2-yl-N-(3-(1H-imidazol-1-yl)propyl)benzamide], in assay [1], the inhibition at 100 µM came to 94.5%. Besides, the “Avg. MABP in mm Hg (No. of Rats)” value in assay [2] is 95 mm Hg.
For `O=S(=O)(c1ccccc1)N(CCCn1ccnc1)C1=Nc2cccc3cccc1c23` [N-Benz(cd)indol-2-yl-N-(3-(1H-imidazol-1-yl)propyl)benzenesulfonamide], in that order: 93% and 135 mm Hg.
Regarding `CC(=O)N(CCCc1cccnc1)C1=Nc2cccc3cccc1c23` [N-Benz(cd)indol-2-yl-N-(3-(3-pyridinyl)propyl)acetamide], the inhibition at 100 µM in assay [1] amounted to 95%. For the same compound, in assay [2], the “Avg. MABP in mm Hg (No. of Rats)” value was found to be 85 mm Hg.
For `COc1ccccc1C(=O)N(CCCCn1ccnc1)C1=Nc2cccc3cccc1c23` [N-Benz(cd)indol-2-yl-N-(4-(1H-imidazol-1-yl)butyl)-2-methoxybenzamide], in that order: 93% and 76 mm Hg.
`CC(=O)N(CCCCn1ccnc1)C1=Nc2cccc3cccc1c23` [N-Benz(cd)indol-2-yl-N-(4-(1H-imidazol-1-yl)butyl)acetamide]: the inhibition at 100 µM in assay [1] stood at 98.5%. Moreover, the “Avg. MABP in mm Hg (No. of Rats)” value in assay [2] was determined as 81 mm Hg.
With `Cc1ccc(S(=O)(=O)Nc2ccc3c4c(cccc24)C(NCCCCn2ccnc2)=N3)cc1` [monoacetate], the inhibition at 100 µM in assay [1] was found to be 79%. In addition, the “Avg. MABP in mm Hg (No. of Rats)” value in assay [2] was found to be 125 mm Hg.
